Measured values as given in article PMC12948245, “Fluorinated Carnitine Derivatives as Tools to Visualise Carnitine Transport and Metabolism” (Advanced Science, 2025).

How the values were obtained:
OCTN2 [1] = target: T1, OCTN2 (Homo sapiens, UniProt O76082); assay: inhibition of […]FMC uptake in H460 cells by co-incubation; assay type: cell-based; conditions: HBSS, 37 °C, 60 min; inhibitor concentration of this test not given
T1 construct: gene SLC22A5; endogenous full-length transporter in intact H460 cells; identity supported by OCTN2 siRNA knockdown (siRNA L-007456-00-0005)
T1 sequence (O76082 1-557): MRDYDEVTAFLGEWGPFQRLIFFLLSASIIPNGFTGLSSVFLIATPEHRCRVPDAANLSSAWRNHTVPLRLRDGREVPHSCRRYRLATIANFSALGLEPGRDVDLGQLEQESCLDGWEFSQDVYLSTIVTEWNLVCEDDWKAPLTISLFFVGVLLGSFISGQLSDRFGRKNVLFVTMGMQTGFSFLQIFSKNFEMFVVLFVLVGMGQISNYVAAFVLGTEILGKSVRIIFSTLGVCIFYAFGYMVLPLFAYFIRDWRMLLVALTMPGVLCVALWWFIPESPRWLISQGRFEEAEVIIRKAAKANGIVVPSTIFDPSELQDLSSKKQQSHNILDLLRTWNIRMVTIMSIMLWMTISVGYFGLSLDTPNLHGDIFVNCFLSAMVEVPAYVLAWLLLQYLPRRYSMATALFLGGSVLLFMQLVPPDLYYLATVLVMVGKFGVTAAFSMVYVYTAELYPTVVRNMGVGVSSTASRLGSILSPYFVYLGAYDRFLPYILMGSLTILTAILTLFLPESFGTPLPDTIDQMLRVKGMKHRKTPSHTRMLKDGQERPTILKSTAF

OCTN2 [2] = target: T1, OCTN2; assay: competitive inhibition of […]FMC uptake in H460 cells, gamma counting; assay type: cell-based; conditions: HBSS, 37 °C, 60 min; [18F]FMC as tracer; endogenous transporter; n = 3

Compound | % reduction of [18F]FMC uptake (OCTN2 [1]) [%] | IC50 (OCTN2 [2]) [µM]
C[N+](C)(C)NCCC(=O)[O-] [meldonium] | 78.1 ± 10.2 | –
C[N+](C)(C)C[C@H](O)CC(=O)O [ʟ-carnitine] | – | 4.8 ± 1.6
